≈ marks a conversion by molar mass, not a printed value.
Tests used:
Assay type in all cases: cell-based
Fibroblasts = assay: MTT cytotoxicity assay on fibroblasts; conditions: Fibroblast, read-out: 50% inhibitory concentration
[1] = system: K562 (human erythroleukemia); assay: MTT cytotoxicity assay on K562 cells; conditions: 48 hours, read-out: 50% inhibitory concentration
Description: (§1) The human cell lines used were K562 (human erythroleukemia) MCF7 (human breast cancer) and A375 (human melanoma). The murine cell lines used were Mel Rel (murine melanoma) and 4T1 (murine mammary cancer). […] The cell line 4T1 was also maintained with 1 mM of sodium pyruvate (Eurobio, Toulouse, FR). For the assays on normal cells, human mononucleocytes from the venous peripheral blood of healthy donors (PBMC) were obtained, and were separated by centrifugation using a Ficoll-Hypaque density gradient (GE Healthcare Bio-Sciences AB, Bjorkgatan, Uppsala, Sweden). The cytotoxic effect of the combination of the invention on tumor cells and normal cells was evaluated by direct microscopic observation and via assays with MTT (Sigma, Saint Louis Mo., USA). […] The formazan crystals were dissolved with dimethyl sulfoxide (DMSO) and the optical density was measured at 540 nm in a Multiskan MCC/340 machine (Labsystems, Thermo Fisher Scientific, Waltham, USA). The cytotoxic effect of FA-CS was evaluated with MTT on various tumoral cell lines. The […] value on the various cell lines was calculated using the Minitab software. […]

[2] = system: 4T1 (murine mammary cancer); assay: MTT cytotoxicity assay on 4T1 cells; conditions: Mus musculus, 48 hours, read-out: 50% inhibitory concentration
Description: as §1

A375 (human melanoma) = assay: MTT cytotoxicity assay on A375 cells; conditions: A-375, 48 hours, read-out: 50% inhibitory concentration
Description: The human cell lines used were K562 (human erythroleukemia) MCF7 (human breast cancer) and A375 (human melanoma). The murine cell lines used were Mel Rel (murine melanoma) and 4T1 (murine mammary cancer). These cells were maintained in RPMI 1640 medium supplemented with 10% fetal calf serum, 2 mM of L-glutamine, 100 U of penicillin, 100 μg/ml of streptomycin and 0.01 M of HEPES (Eurobio, Toulouse, FR) at 37° C. with 5% CO2 under a humid atmosphere. The cell line 4T1 was also maintained with 1 mM of sodium pyruvate (Eurobio, Toulouse, FR). For the assays on normal cells, human mononucleocytes from the venous peripheral blood of healthy donors (PBMC) were obtained, and were separated by centrifugation using a Ficoll-Hypaque density gradient (GE Healthcare Bio-Sciences AB, Bjorkgatan, Uppsala, Sweden).
The cytotoxic effect of the combination of the invention on tumor cells and normal cells was evaluated by direct microscopic observation and via assays with MTT (Sigma, Saint Louis Mo., USA). […] The formazan crystals were dissolved with dimethyl sulfoxide (DMSO) and the optical density was measured at 540 nm in a Multiskan MCC/340 machine (Labsystems, Thermo Fisher Scientific, Waltham, USA).
The cytotoxic effect of FA-CS was evaluated with MTT on various tumoral cell lines. The […] value on the various cell lines was calculated using the Minitab software. […]

[3] = system: MCF7 (human breast cancer); assay: MTT cytotoxicity assay on MCF7 cells; conditions: 48 hours, read-out: 50% inhibitory concentration
Description: as §1

Compound | IC50 (Fibroblasts) | IC50 [1] | IC50 [2] | IC50 (A375 (human melanoma)) | IC50 [3]
COc1cccc2c1C(=O)c1c(O)c3c(c(O)c1C2=O)C[C@@](O)(C(=O)CO)C[C@@H]3O[C@H]1C[C@H](N)[C@H](O)[C@H](C)O1 [Doxorubicin] | 0.4 ± 0.1 µg/mL (≈ 0.736 µM) | 0.2 ± 0.1 µg/mL | 0.5 ± 0.1 µg/mL | 0.02 ± 0.1 µg/mL | –
O=C(O)c1cc(O)c(O)c(O)c1 [Gallic acid] | – | 18.2 ± 0.1 µg/mL | 96.2 µg/mL | – | 4.07 ± 0.04 µg/mL
